Measurements from PubChem BioAssay (NCI).
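Assay format: 96-well plates, 48-hour exposure. TGI marks complete inhibition of growth.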 Where a SMILES comes first, the peptide text is derived from it. [ ]: non-standard residue; d: D form. ΔPro = O=C(O)[CH]1C=CCN1

How the values were obtained:
Assay in all cases: NCI-60 cell line screen, 48 h
[1] = test system: T-47D breast
[2] = test system: UACC-257 melanoma
[3] = test system: CAKI-1 renal
[4] = test system: UO-31 renal
[5] = test system: SK-MEL-2 melanoma
[6] = test system: OVCAR-3 ovarian
[7] = test system: SF-295 CNS
[8] = test system: NCI-H522 lung
[9] = test system: PC-3 prostate
[10] = test system: BT-549 breast
[11] = test system: DU-145 prostate
[12] = test system: SF-268 CNS
[13] = test system: M14 melanoma
[14] = test system: RXF 393 renal
[15] = test system: HOP-92 NSCLC

COC(=O)[C@@H]1C[C@@H](O)CN1C(=O)c1ccc([N+](=O)[O-])cc1[N+](=O)[O-]
TGI [1]: > 100 µM
TGI [2]: > 100 µM
TGI [3]: > 100 µM
TGI [4]: > 100 µM
TGI [5]: > 100 µM
TGI [6]: > 100 µM
TGI [7]: > 100 µM
TGI [8]: > 100 µM
TGI [9]: > 100 µM
TGI [10]: > 100 µM
TGI [11]: > 100 µM
TGI [12]: > 100 µM
TGI [13]: > 100 µM
TGI [14]: > 100 µM
TGI [15]: > 100 µM

CN1CCC2(c3ccccc3)CC(=O)/C(=C/c3ccc(Cl)c(Cl)c3)C1C2 (stereo not given)
TGI [1]: > 41.5 µM
TGI [2]: 23.3 µM
TGI [3]: 13.8 µM
TGI [4]: 3.82 µM
TGI [5]: 9.87 µM
TGI [6]: 9.59 µM
TGI [7]: 6.52 µM
TGI [8]: 3.6 µM
TGI [9]: 4.52 µM
TGI [10]: 6.83 µM
TGI [11]: 11.9 µM
TGI [12]: 3.73 µM
TGI [13]: 8.59 µM
TGI [14]: 7.07 µM
TGI [15]: 7.33 µM

Cc1ccc(Sc2ccccc2C23OC(C)(C4C(=O)N(c5ccccc5)C(=O)C42)N(C)C3=O)cc1 (stereo not given)
TGI [1]: > 100 µM
TGI [2]: > 100 µM
TGI [3]: > 100 µM
TGI [4]: > 100 µM
TGI [5]: > 100 µM
TGI [6]: > 100 µM
TGI [7]: > 100 µM
TGI [8]: > 100 µM
TGI [9]: > 100 µM
TGI [10]: > 100 µM
TGI [11]: > 100 µM
TGI [12]: > 100 µM
TGI [13]: > 100 µM
TGI [14]: > 100 µM
TGI [15]: > 100 µM

CSC1=NN(C(C)=O)C(C(OC(C)=O)C(OC(C)=O)C(OC(C)=O)C(COC(C)=O)OC(C)=O)S1 (stereo not given)
TGI [1]: > 100 µM
TGI [2]: > 100 µM
TGI [3]: > 100 µM
TGI [4]: > 100 µM
TGI [5]: > 100 µM
TGI [6]: > 100 µM
TGI [7]: > 100 µM
TGI [8]: > 100 µM
TGI [9]: > 100 µM
TGI [10]: > 100 µM
TGI [11]: > 100 µM
TGI [12]: > 100 µM
TGI [13]: > 100 µM
TGI [14]: > 100 µM
TGI [15]: > 100 µM

CC(=O)Nc1cc(Cl)cc(Cl)c1O
TGI [1]: > 100 µM
TGI [2]: > 100 µM
TGI [3]: > 100 µM
TGI [4]: > 100 µM
TGI [5]: > 100 µM
TGI [6]: > 100 µM
TGI [7]: > 100 µM
TGI [8]: > 100 µM
TGI [9]: > 100 µM
TGI [10]: > 100 µM
TGI [11]: > 100 µM
TGI [12]: > 100 µM
TGI [13]: > 100 µM
TGI [14]: > 100 µM
TGI [15]: > 100 µM

O=C1Nc2ccc(Br)cc2/C1=N/S(=O)(=O)O
TGI [1]: > 100 µM
TGI [2]: 31.4 µM
TGI [3]: > 100 µM
TGI [4]: > 100 µM
TGI [5]: 22.4 µM
TGI [6]: > 100 µM
TGI [7]: > 100 µM
TGI [8]: > 100 µM
TGI [9]: 83.3 µM
TGI [10]: > 100 µM
TGI [11]: > 100 µM
TGI [12]: > 100 µM
TGI [13]: > 100 µM
TGI [14]: > 100 µM
TGI [15]: > 100 µM

O=Cc1ccc2ccocc1-2
TGI [1]: > 100 µM
TGI [2]: > 100 µM
TGI [3]: > 100 µM
TGI [4]: > 100 µM
TGI [5]: > 100 µM
TGI [6]: > 100 µM
TGI [7]: > 100 µM
TGI [8]: > 100 µM
TGI [9]: > 100 µM
TGI [10]: > 100 µM
TGI [11]: > 100 µM
TGI [12]: > 100 µM
TGI [13]: > 100 µM
TGI [14]: > 100 µM
TGI [15]: > 100 µM

CC(O)CNC(=O)Nc1c(C(F)(F)F)cc(-c2ccccc2)[nH]c1=O (stereo not given)
TGI [1]: > 100 µM
TGI [2]: > 100 µM
TGI [3]: > 100 µM
TGI [4]: > 100 µM
TGI [5]: > 100 µM
TGI [6]: > 100 µM
TGI [7]: > 100 µM
TGI [8]: > 100 µM
TGI [9]: > 100 µM
TGI [10]: > 100 µM
TGI [11]: > 100 µM
TGI [12]: > 100 µM
TGI [13]: > 100 µM
TGI [14]: > 100 µM
TGI [15]: > 100 µM

C[N+](C)(C)CC(=O)N/N=C(\Cc1nc2ccc([N+](=O)[O-])cc2[nH]c1=O)C(=O)Nc1nc2ccc([N+](=O)[O-])cc2s1
TGI [1]: > 100 µM
TGI [2]: > 100 µM
TGI [3]: 92 µM
TGI [4]: > 100 µM
TGI [5]: > 100 µM
TGI [6]: > 100 µM
TGI [7]: > 100 µM
TGI [8]: 79.8 µM
TGI [9]: > 100 µM
TGI [10]: 94.3 µM
TGI [11]: > 100 µM
TGI [12]: > 100 µM
TGI [13]: > 100 µM
TGI [14]: > 100 µM
TGI [15]: > 100 µM

O=C1C=C(c2ccccc2)OC1C1Sc2ccccc2NC1=O (stereo not given)
TGI [1]: > 100 µM
TGI [2]: > 24.4 µM
TGI [3]: > 100 µM
TGI [4]: 76.1 µM
TGI [5]: > 41.1 µM
TGI [6]: 18.9 µM
TGI [7]: 27 µM
TGI [8]: 33.8 µM
TGI [9]: > 54.9 µM
TGI [10]: > 100 µM
TGI [11]: > 81 µM
TGI [12]: > 100 µM
TGI [13]: 35.6 µM
TGI [14]: > 94.4 µM
TGI [15]: > 87 µM

C=C1c2nc3ccccc3n2C=C(c2ccccc2)N1c1ccc(Cl)cc1
TGI [1]: > 100 µM
TGI [2]: > 100 µM
TGI [3]: 21.6 µM
TGI [4]: > 100 µM
TGI [5]: > 100 µM
TGI [6]: 59.5 µM
TGI [7]: 49.2 µM
TGI [8]: > 100 µM
TGI [9]: > 100 µM
TGI [10]: > 66.2 µM
TGI [11]: > 100 µM
TGI [12]: > 100 µM
TGI [13]: > 75.2 µM
TGI [14]: > 67.6 µM
TGI [15]: 61.2 µM

CCOC(=O)CN1C(=O)NC(C)(c2ccccc2)C1=O (stereo not given)
TGI [1]: > 100 µM
TGI [2]: > 100 µM
TGI [3]: > 100 µM
TGI [4]: > 100 µM
TGI [5]: > 100 µM
TGI [6]: > 100 µM
TGI [7]: > 100 µM
TGI [8]: > 100 µM
TGI [9]: > 100 µM
TGI [10]: > 100 µM
TGI [11]: > 100 µM
TGI [12]: > 100 µM
TGI [13]: > 100 µM
TGI [14]: > 100 µM
TGI [15]: > 100 µM

Cc1[nH]c(C)c(CN(C)C)c1CN(C)C
TGI [1]: > 100 µM
TGI [2]: > 100 µM
TGI [3]: > 100 µM
TGI [4]: > 100 µM
TGI [5]: > 100 µM
TGI [6]: > 100 µM
TGI [7]: > 100 µM
TGI [8]: > 100 µM
TGI [9]: > 100 µM
TGI [10]: > 100 µM
TGI [11]: > 100 µM
TGI [12]: > 100 µM
TGI [13]: > 100 µM
TGI [14]: > 100 µM
TGI [15]: > 100 µM

O=C(O)C1C=CCN1C(=O)C1C=CCN1C(=O)C1C=CCN1 (stereo not given) (H-[ΔPro]-[ΔPro]-[ΔPro]-OH; configuration not given here)
TGI [1]: > 100 µM
TGI [2]: > 100 µM
TGI [3]: > 100 µM
TGI [4]: > 100 µM
TGI [5]: > 100 µM
TGI [6]: > 100 µM
TGI [7]: > 100 µM
TGI [8]: > 100 µM
TGI [9]: > 100 µM
TGI [10]: > 100 µM
TGI [11]: > 100 µM
TGI [12]: > 100 µM
TGI [13]: > 100 µM
TGI [14]: > 100 µM
TGI [15]: > 100 µM
